How the values were obtained:
[1] = tested on: adjuvant arthritis; experiment: Rat adjuvant arthritis test (adjuvant); format: in vivo; details: for ED50: rat adjuvant arthritis
Source text: c. Rat adjuvant arthritis test (adjuvant)
The test was done in accordance with procedures well-known in the art (see: C. A. Winter, Arthr. Rheum 9, 394-404 (1966).

[2] = tested on: phenylbenzquinone (PBQ) writhing; experiment: Inhibition of phenylbenzquinone (PBQ) writhing in mice; format: in vivo, mice (C.B.L., CD1); details: Mus musculus, oral, PBQ 2.0 mg/kg i.p.
Description: b. Inhibition of phenylbenzquinone (PBQ) writhing in mice:
Groups of 10 male mice (C.B.L., CD1, 18-22 grams) were food deprived overnight prior to the experiments. Test substances, suspended or dissolved in 1% methylcellulose, were administered orally (0.1 ml/10 grams body weight) at various times prior to administration of PBQ (2.0 mg/kg i.p.). The mice were placed in individual boxes and observed for 10 minutes (5 to 15 minutes after PBQ). The number of "writhes" (abdominal contraction, lordosis and hindlimb extension) for each animal was recorded and the group means and standard errors were calculated. The means obtained from drug treated groups were compared with the vehicle control mean values and percent inhibition of writhing was calculated as follows: [formula]

[3] = in vivo; design: species or system Rats (Sprague-Dawley); details: rat, po
Description: The GHLF test is conducted according to the following procedure:
Rats (Sprague-Dawley, Males, 120-180 gm) were fasted overnight and dosed orally with drug suspended in 0.5% methylcellulose. The drug concentration was adjusted so that each animal received 1.0 ml/100 gm body weight. Four hours later the animals were killed by asphixiation in carbon dioxide, the stomachs removed, cut open and everted. The mucosal lining was washed and examined under 3X magnification. The lesions are indentified as perforations of the gastric mucosa many of which perforate right through the wall of the stomach.
The results are expressed in two ways, the average number of lesions per stomach, and the number of animals in the group showing at least one lesion.

SMILES: CCOC(=O)C1CCn2c1cc(C)c2C(=O)c1cccn1C (centres unmarked) [Prior Art Compound, reference compound]
- protection from bone and cartilage destruction ([1]; at 30 mg/kg): No protection
- ED50 [1]: 30 mg/kg
- ED50 [2]: 1 mg/kg
- TD50 at 4 h [3]: 10 mg/kg

SMILES: CCOC(=O)C1CCn2c1cc(C)c2C(=O)c1ccc(SC)n1C (centres unmarked) [RZ = CH3 S, R^4 = C2 H5, ethyl 5-(1-methyl-5-methylthio-2-pyrroyl)-1,2-dihydro-6-methyl-3H-pyrrolo-[1,2-a]pyrrole-1-carboxylate]
- protection from bone and cartilage destruction ([1]; at 10 mg/kg): Protection
- ED50 [1]: 7.5 mg/kg
- ED50 [2]: 0.17 mg/kg
- TD50 at 4 h [3]: 90 mg/kg

SMILES: CSc1ccc(C(=O)c2c(C)cc3n2CCC3C(=O)O)n1C (centres unmarked) [RZ = CH3 S, R^4 = H, 5-(1-methyl-5-methylthio-2-pyrroyl)-1,2-dihydro-6-methyl-3H-pyrrolo-[1,2-a]pyrrole-1-carboxylic acid]
- TD50 at 4 h [3]: 15 mg/kg

SMILES: Cc1cc2n(c1C(=O)c1ccc(Cl)n1C)CCC2C(=O)O (centres unmarked) [RZ = Cl, R^4 = H, 5-(1-methyl-5-chloro-2-pyrroyl)-1,2-dihydro-6-methyl-3H-pyrrolo[1,2-a]pyrrole-1-carboxylic acid]
- ED50 [2]: 2.1 mg/kg
- TD50 at 4 h [3]: 15 mg/kg

Source: patent US4511724A, “5-(Pyrrol-2-oyl)-1,2-dihydro-3H-pyrrolo [1,2-a]pyrrole derivatives as anti-inflammatory and analgesic agents” (Merck & Co., Inc., priority 1982, dated 1985)
